{
  "source": "patent US5545639A",
  "about": "“Method of inhibiting transformed cells” (The United States of America as represented by the …, priority 1994, dated 1996)",
  "key": {"[1]": {"conditions": "mouse"}, "P388/ADR": {"system": "P388/ADR", "assay": "Dose response of growth, tumor cell line", "type": "cell-based, murine", "conditions": "miscellaneous", "procedure": "(§1) Indeed, 70% of the cell lines were shown not only to experience precluded growth, but cell death, when exposed to less then 100 μM of the active ingredient."}, "L1210 mouse cells": {"system": "L1210 mouse cells", "assay": "Example 3: growth of L1210 mouse cells with bis(halomethyl)phenanthrolines plus copper, with or without BCS", "type": "cell-based", "conditions": "at highest concentration tested (3 μM); copper 10 μM, BCS 100 μM", "procedure": "Bis(halomethyl)phenanthroline compounds were synthesized according to the method of Newkome et al., J. Org. Chem., 48, 5112-5114 (1983). Such compounds, namely, 2,9-bis(bromomethyl)phenanthroline and 2,9-bis(chloromethyl)phenanthroline, were added in the presence of copper, but with or without BCS (the copper chelator shown in Examples 1 and 2 to reduce inhibitory activity), to the culture media of L1210 mouse cells, using the same methods of Examples 1 and 2. The concentrations of copper and BCS used in these experiments were 10 μM and 100 μM, respectively. The growth of the cells as a percent of control were determined, and the results plotted in the graph of FIG. 3, wherein open squares (.quadrature.) represent the compound plus copper chelate and solid squares (.box-solid.) represent the compound together with both copper and BCS addition to the culture medium."}, "human tumor cell lines": {"system": "human tumor cell lines", "assay": "Example 5: dose response of growth of human tumor cell lines, overall panel", "type": "cell-based", "procedure": "as §1"}},
  "data": [
    {"smiles": "ClCc1ccc2ccc3ccc(CCl)nc3c2n1", "note": "[2,9-bis(chloromethyl)-1,10-phenanthroline]", "values": [
      {"measurement": "tolerated in vivo concentration relative to 100 μM in vitro", "setting": "[1]", "value": "at least 8.5 times"},
      {"measurement": "toxicity in an animal", "setting": "[1]; in vivo, 250 mg/kg", "value": "not toxic"},
      {"measurement": "tolerability in mammals compared with the brominated derivative", "setting": "[1]; in vivo, ip", "value": "better tolerated"},
      {"measurement": "IC50", "setting": "P388/ADR; Mus musculus, read-out: 50% Growth (Relative to Control)", "value": 355, "unit": "nM"},
      {"measurement": "IC100", "setting": "P388/ADR; Mus musculus, read-out: No Growth (Relative to Control)", "value": 3.82, "unit": "µM"},
      {"measurement": "CC50", "setting": "P388/ADR; read-out: 50% Loss (50% kill)", "value": "> 100000", "unit": "nM"},
      {"measurement": "difference between the copper-chelated and the unchelated derivative", "setting": "L1210 mouse cells", "value": 10, "unit": "%"},
      {"measurement": "IC (total growth inhibition)", "setting": "human tumor cell lines; Homo sapiens, average, majority of cell lines, read-out: average concentration to preclude growth of the transformed cells in vitro, majority of cell lines", "value": "~5.66", "unit": "µM"},
      {"measurement": "cessation of growth of transformed cells", "setting": "human tumor cell lines; human tumor cell lines", "value": "nearly all transformed cells cease growth in the presence of micromolar concentrations"}
    ]}
  ]
}
